Data on 31 compounds can be found in patent US10479784B2, “Substituted pyrazin-2-amines as inhibitors of ATR kinase” (Vertex Pharmaceuticals Incorporated, priority 2008, dated 2019).

Molecules are shown by their SMILES.

Chain of full-length ATR (Q13535 whole entry): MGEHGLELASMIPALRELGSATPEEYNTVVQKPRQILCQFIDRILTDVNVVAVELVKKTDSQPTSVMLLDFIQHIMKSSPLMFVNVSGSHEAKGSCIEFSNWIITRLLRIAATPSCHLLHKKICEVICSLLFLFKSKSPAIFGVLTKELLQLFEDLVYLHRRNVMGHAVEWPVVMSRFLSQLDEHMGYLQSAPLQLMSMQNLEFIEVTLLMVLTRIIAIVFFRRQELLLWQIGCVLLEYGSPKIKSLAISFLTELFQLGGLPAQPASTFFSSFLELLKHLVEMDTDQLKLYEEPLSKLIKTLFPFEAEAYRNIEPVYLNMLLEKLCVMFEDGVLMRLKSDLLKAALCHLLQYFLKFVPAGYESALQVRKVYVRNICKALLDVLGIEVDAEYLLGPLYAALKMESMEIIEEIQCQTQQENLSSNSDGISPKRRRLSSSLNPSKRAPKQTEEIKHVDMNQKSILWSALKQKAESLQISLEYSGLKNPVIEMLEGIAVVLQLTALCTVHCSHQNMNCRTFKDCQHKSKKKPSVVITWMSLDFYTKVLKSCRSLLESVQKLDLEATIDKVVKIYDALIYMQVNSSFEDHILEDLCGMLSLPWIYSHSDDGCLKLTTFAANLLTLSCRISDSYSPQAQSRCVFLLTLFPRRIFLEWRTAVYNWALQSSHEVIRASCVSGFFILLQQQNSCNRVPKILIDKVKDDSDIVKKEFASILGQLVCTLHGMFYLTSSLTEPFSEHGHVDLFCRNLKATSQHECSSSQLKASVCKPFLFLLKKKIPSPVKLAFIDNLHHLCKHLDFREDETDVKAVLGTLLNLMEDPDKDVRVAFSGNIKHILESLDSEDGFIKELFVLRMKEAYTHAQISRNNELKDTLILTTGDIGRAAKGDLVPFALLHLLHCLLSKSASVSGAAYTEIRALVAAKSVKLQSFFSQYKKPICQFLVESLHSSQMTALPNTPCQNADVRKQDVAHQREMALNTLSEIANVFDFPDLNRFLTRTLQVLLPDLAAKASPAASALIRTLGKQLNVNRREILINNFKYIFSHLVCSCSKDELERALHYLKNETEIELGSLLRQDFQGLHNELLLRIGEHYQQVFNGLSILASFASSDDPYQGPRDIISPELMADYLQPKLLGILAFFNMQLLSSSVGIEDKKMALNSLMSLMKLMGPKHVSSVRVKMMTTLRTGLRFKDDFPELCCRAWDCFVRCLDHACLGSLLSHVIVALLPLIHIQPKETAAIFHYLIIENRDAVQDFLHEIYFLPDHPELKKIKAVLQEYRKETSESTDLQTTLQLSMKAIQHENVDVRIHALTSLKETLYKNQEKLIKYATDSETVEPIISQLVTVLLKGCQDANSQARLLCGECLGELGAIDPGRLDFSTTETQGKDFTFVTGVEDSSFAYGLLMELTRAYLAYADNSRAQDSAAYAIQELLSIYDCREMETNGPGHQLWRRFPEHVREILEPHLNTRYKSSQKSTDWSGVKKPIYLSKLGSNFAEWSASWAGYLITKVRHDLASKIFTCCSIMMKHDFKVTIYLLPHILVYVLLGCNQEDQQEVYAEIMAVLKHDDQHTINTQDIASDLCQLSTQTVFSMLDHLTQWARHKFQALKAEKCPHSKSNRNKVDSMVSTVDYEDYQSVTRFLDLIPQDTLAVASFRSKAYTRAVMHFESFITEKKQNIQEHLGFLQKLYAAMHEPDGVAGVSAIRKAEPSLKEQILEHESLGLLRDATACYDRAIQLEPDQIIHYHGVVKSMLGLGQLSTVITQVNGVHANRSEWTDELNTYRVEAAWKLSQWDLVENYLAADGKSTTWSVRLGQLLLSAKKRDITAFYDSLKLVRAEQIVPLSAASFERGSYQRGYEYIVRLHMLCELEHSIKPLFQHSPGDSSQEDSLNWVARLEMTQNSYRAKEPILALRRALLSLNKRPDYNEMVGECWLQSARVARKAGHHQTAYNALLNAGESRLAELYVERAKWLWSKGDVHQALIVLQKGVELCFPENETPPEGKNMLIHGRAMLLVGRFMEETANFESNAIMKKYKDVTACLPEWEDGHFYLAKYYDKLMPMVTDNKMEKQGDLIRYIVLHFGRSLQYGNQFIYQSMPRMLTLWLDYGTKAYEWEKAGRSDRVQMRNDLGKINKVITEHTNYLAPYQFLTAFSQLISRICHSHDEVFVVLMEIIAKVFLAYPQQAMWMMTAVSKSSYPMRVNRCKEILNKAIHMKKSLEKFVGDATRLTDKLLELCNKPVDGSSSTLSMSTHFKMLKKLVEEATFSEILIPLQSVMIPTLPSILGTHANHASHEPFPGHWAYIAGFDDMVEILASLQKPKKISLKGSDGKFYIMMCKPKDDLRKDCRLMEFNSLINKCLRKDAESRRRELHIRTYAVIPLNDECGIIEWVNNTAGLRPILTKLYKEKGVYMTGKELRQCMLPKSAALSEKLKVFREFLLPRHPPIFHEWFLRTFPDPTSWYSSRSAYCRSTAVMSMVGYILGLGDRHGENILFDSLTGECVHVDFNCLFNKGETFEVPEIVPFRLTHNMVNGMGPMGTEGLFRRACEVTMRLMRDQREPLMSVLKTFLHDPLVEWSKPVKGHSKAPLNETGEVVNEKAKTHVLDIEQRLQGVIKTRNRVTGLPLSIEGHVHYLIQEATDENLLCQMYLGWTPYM

In this experiment the target is full-length ATR (Homo sapiens (Human), UniProt Q13535). Briefly: ATR Inhibition Assay (radioactive-phosphate incorporation). The class given is biochemical. Conditions: read-out: ATR Ki. In outline:
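Full-length human ATR (5 nM) was assayed at 25 °C in 50 mM Tris/HCl pH 7.5, 10 mM MgCl2, 1 mM DTT, with 10 μM [γ-33P]ATP and 800 μM peptide, after 10-min compound preincubation. Reactions were stopped after 24 h, captured on phosphocellulose and counted; Ki(app) came from non-linear regression of initial rates.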
The term Ki denotes a measure of affinity in units of concentration, obtained from inhibition or displacement. Consider `Nc1ncc(-c2ccc(C(=O)N3CCCNCC3)c(F)c2)nc1-c1nnc(-c2ccccc2)o1` [IA-6], for which the Ki was at most 10 nM.
Regarding `CN(C)C(=O)c1ccc(-c2cnc(N)c(-c3nnc(-c4cccn4C)o3)n2)cc1` [IA-135, 4-[5-amino-6-[5-(1-methylpyrrol-2-yl)-1,3,4-oxadiazol-2-yl]pyrazin-2-yl]-N,N-dimethyl-benzamide], the Ki is at most 10 nM.
In the case of `Nc1ncc(-c2cccnc2)nc1-c1nnc(-c2ccccc2)[nH]1` [Compound I-138, 3-(5-phenyl-4H-1,2,4-triazol-3-yl)-5-(pyridin-3-yl)pyrazin-2-amine] it was 10 to 100 nM.
As to `Nc1ncc(-c2ccc(CO)cc2)nc1C(=O)Nc1ccccc1` [Compound I-16, 3-amino-6-(4-(hydroxymethyl)phenyl)-N-phenylpyrazine-2-carboxamide], the inhibitory constant (Ki) was in the range of 100 to 5000 nM.
On to `Nc1ncc(-c2ccc(C(=O)N3CCCNCC3)cc2)nc1C(=O)Nc1ccc2c(c1)NNC2` [Compound V-28], for which the Ki is 10 to 100 nM.
As for `CN(C)C(=O)c1ccc(-c2cnc(N)c(-c3nnc(-c4cccc(N)n4)o3)n2)cc1` [IA-231, 4-[5-amino-6-[5-(6-amino-2-pyridyl)-1,3,4-oxadiazol-2-yl]pyrazin-2-yl]-N,N-dimethyl-benzamide], the Ki fell in the range of 10 to 100 nM.
`Nc1ncc(-c2ccncc2)nc1-c1nnc(-c2ccccc2)o1` [IA-60]: the Ki was at most 10 nM.
`Cc1cccc(-c2nnc(-c3nc(-c4ccc(C(=O)N(C)C)cc4)cnc3N)o2)c1` [IA-237, 4-[5-amino-6-[5-(m-tolyl)-1,3,4-oxadiazol-2-yl]pyrazin-2-yl]-N,N-dimethyl-benzamide]: the inhibition constant Ki lay within 10 to 100 nM.
With `CN(C)C(=O)c1ccc(-c2cnc(N)c(-c3nnc(NC(=O)c4ccccc4)o3)n2)cc1` [IA-287, 4-[5-amino-6-(5-benzamido-1,3,4-oxadiazol-2-yl)pyrazin-2-yl]-N,N-dimethyl-benzamide] the figure was 100 to 5000 nM; with `COc1cnccc1-c1cnc(N)c(-c2nnc(-c3ccccc3)o2)n1` [IA-86, 5-(3-methoxy-4-pyridyl)-3-(5-phenyl-1,3,4-oxadiazol-2-yl)pyrazin-2-amine], 100 to 5000 nM.
As for `COc1cccc(NC(=O)c2nc(-c3cccnc3)cnc2N)c1` [Compound I-86, 3-amino-N-(3-methoxyphenyl)-6-(pyridin-3-yl)pyrazine-2-carboxamide], the Ki was 10 to 100 nM.
Take `Nc1ncc(-c2ccc(C(=O)N3CCCNCC3)cc2)nc1C(=O)Nc1cc2ccccc2[nH]1` [Compound V-6]: the Ki was 100 to 5000 nM.
Consider `CC(CCO)S(=O)(=O)c1ccc(-c2cnc(N)c(-c3nnc(-c4ccccc4F)o3)n2)cc1` (stereo not shown) [IA-339, 3-[4-[5-amino-6-[5-(2-fluorophenyl)-1,3,4-oxadiazol-2-yl]pyrazin-2-yl]phenyl]sulfonylbutan-1-ol], for which the Ki is at most 10 nM.
On to `CCCS(=O)(=O)c1ccc(-c2cnc(N)c(-c3nnc(-c4ccc(CNC)cc4)o3)n2)cc1` [IA-310, 3-[5-[4-(methylaminomethyl)phenyl]-1,3,4-oxadiazol-2-yl]-5-(4-propylsulfonylphenyl)pyrazin-2-amine], for which the inhibition constant Ki is at most 10 nM.
On to `Nc1ncc(-c2ccc(C(=O)N3CCCNCC3)cc2)nc1C(=O)Nc1cc2ccccc2[nH]1` [Compound V-26], for which the inhibitory constant (Ki) was in the range of 100 to 5000 nM.
In the case of `Nc1ncc(-c2cccnc2)nc1C(=O)Nc1ccccc1OC(F)(F)F` [Compound I-102, 3-amino-6-(pyridin-3-yl)-N-(2-(trifluoromethoxy)phenyl)pyrazine-2-carboxamide], the inhibition constant (Ki) is 10 to 100 nM.
Take `CN(C)CCN(C)C(=O)c1ccc(-c2cnc(N)c(C(=O)Nc3ccccc3)n2)cc1` [Compound I-68, 3-amino-6-(4-((2-(dimethylamino)ethyl)(methyl)carbamoyl)phenyl)-N-phenylpyrazine-2-carboxamide]: the inhibition constant (Ki) is 10 to 100 nM.
As to `Nc1ncc(-c2cnc(C(=O)N3CCCNCC3)nc2)nc1-c1nnc(-c2ccccc2)o1` [IA-37], the Ki lay within 10 to 100 nM.
`COc1ccccc1Nc1nnc(-c2nc(-c3ccc(C(=O)N(C)C)cc3)cnc2N)o1` [IA-103, 4-[5-amino-6-[5-(2-methoxyanilino)-1,3,4-oxadiazol-2-yl]pyrazin-2-yl]-N,N-dimethyl-benzamide]: the inhibition constant Ki was 10 to 100 nM.
With `CN(C)C(=O)c1ccc(-c2cnc(N)c(-c3nnc(-c4ccccc4OCCN)o3)n2)cc1` [IA-213, 4-[5-amino-6-[5-[2-(2-aminoethoxy)phenyl]-1,3,4-oxadiazol-2-yl]pyrazin-2-yl]-N,N-dimethyl-benzamide], the inhibitory constant (Ki) was 10 to 100 nM.
With `CNCc1ccc(-c2nnc(-c3nc(-c4ccc(S(=O)(=O)C(C)C)cc4)cnc3N)o2)c(C)c1` [IA-166, 5-(4-isopropylsulfonylphenyl)-3-[5-[2-methyl-4-(methylaminomethyl)phenyl]-1,3,4-oxadiazol-2-yl]pyrazin-2-amine] the figure was at most 10 nM.
Consider `Nc1ncc(-c2cccnc2)nc1C(=O)Nc1ccc2[nH]ccc2c1` [Compound I-104, 3-amino-N-(1H-indol-5-yl)-6-(pyridin-3-yl)pyrazine-2-carboxamide], for which the Ki fell in the range of 10 to 100 nM.
With `CN(C)C(=O)c1ccc(-c2cnc(N)c(-c3nnc(Nc4cccc(C#N)c4)o3)n2)cc1` [IA-254, 4-[5-amino-6-[5-(3-cyanoanilino)-1,3,4-oxadiazol-2-yl]pyrazin-2-yl]-N,N-dimethyl-benzamide] the figure was 100 to 5000 nM.
For `CC(=O)Nc1ccc(-c2cnc(N)c(-c3nnc(-c4ccccc4)o3)n2)cc1` [IA-247, N-[4-[5-amino-6-(5-phenyl-1,3,4-oxadiazol-2-yl)pyrazin-2-yl]phenyl]acetamide], the Ki is 10 to 100 nM.
In the case of `CC(C)S(=O)(=O)c1ccc(-c2cnc(N)c(-c3nnc(NC4CCNCC4)o3)n2)cc1` [IA-318, 5-[3-amino-6-(4-isopropylsulfonylphenyl)pyrazin-2-yl]-N-(4-piperidyl)-1,3,4-oxadiazol-2-amine] it was 100 to 5000 nM; in that of `Nc1ncc(-c2ccc(C(=O)NCCN3CCCC3)cc2)nc1-c1nc2ccccc2[nH]1` [III-6, 4-(5-amino-6-(1H-benzo[d]imidazol-2-yl)pyrazin-2-yl)-N-(2-(pyrrolidin-1-yl)ethyl)benzamide], 10 to 100 nM; in that of `CC(C)S(=O)(=O)c1ccc(-c2cnc(N)c(-c3nnc(-c4ccc(CO)cc4)o3)n2)cc1` [IA-238, [4-[5-[3-amino-6-(4-isopropylsulfonylphenyl)pyrazin-2-yl]-1,3,4-oxadiazol-2-yl]phenyl]methanol], at most 10 nM.
As for `CN1CCN(C(=O)c2ccc(-c3cnc(N)c(-c4nnc(-c5ccccc5)o4)n3)cc2)CC1` [IA-9], the Ki was at most 10 nM.
With `CC(C)S(=O)(=O)c1ccc(-c2cnc(N)c(-c3nnc(NC(=O)[C@H]4N[C@H]5CC[C@@H]4C5)o3)n2)cc1` [IA-160, (1R,4S,6S)—N-[5-[3-amino-6-(4-isopropylsulfonylphenyl)pyrazin-2-yl]-1,3,4-oxadiazol-2-yl]-5-azabicyclo[2.2.1]heptane-6-carboxamide], the Ki was 100 to 5000 nM.
Regarding `CS(=O)(=O)c1ccc(-c2cnc(N)c(-c3nc4cccc(O)c4[nH]3)n2)cc1` [Compound I-109, 2-(3-amino-6-(4-(methylsulfonyl)phenyl)pyrazin-2-yl)-1H-benzo[d]imidazol-7-ol], the inhibition constant (Ki) is at most 10 nM.
In the case of `CN(C)C(=O)c1ccc(-c2cnc(N)c(-c3nnc(-c4ccccc4OCCO)o3)n2)cc1` [IA-196, 4-[5-amino-6-[5-[2-(2-hydroxyethoxy)phenyl]-1,3,4-oxadiazol-2-yl]pyrazin-2-yl]-N,N-dimethyl-benzamide] it was at most 10 nM.
